Source: patent publication US10501437B2 (Bayer Pharma Aktiengesellschaft, priority 2016, dated 2019)

Assay: Storage stability and micronization of crystalline material from the cubic dosing curve crystallization
Type: physicochemical
Conditions: crystalline material obtained from ethanol/water by cubic dosing curve crystallization

- stability during storage: good stability
SMILES: CC(C)(O)CCn1cc2cc(NC(=O)c3cccc(C(F)(F)F)n3)c(C(C)(C)O)cc2n1 [compound (I), N-[2-(3-Hydroxy-3-methylbutyl)-6-(2-hydroxypropan-2-yl)-2H-indazol-5-yl]-6-(trifluoromethyl)pyridine-2-carboxamide]
